Results on 18 molecules are retold here after patent publication US20230382889A1 (Volastra Therapeutics, Inc., priority 2022, published 2023).

Read-outs that look alike come from different tables or passages of the source.

One assay deals with hKIF18A (1-374) (Homo sapiens (Human), UniProt Q8NI77). Briefly: Inhibition of KIF18A microtubule-dependent ATPase activity (ADP-Glo). It counts as biochemical. To be noted: 4 nM hKIF18A (1-374). In outline:
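Reaction was started with pre-formed microtubules and ATP (0.2 mg/mL and 2.0 mM in the added mix) and run 60 min at 28 °C. ADP was read by ADP-Glo luminescence, and IC50 came from a four-parameter fit of % inhibition.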
Background: ADP-Glo first removes unused ATP, then detects ADP through luciferase.

The test system of another assay is HCC15 cells. In words: Cell viability of KIF18a-sensitive cell lines, HCC15 (Cell Titre-Glo, 7 days). It counts as cell-based. To be noted: HCC15, 7 days, read-out: HCC15 IC50. The protocol:
(§1) Cell lines were seeded as follows 24 hours before compound treatment: HCC15 (Korean Cell Line Bank) 600 cell/well, 95 μL of RPMI-1640 media supplemented with 100 units/mL penicillin, 100 units/mL streptomycin and 10% FBS; NIH:OVCAR-3 (ATCC), 1000 cell/well, 95 μL of RPMI-1640 media supplemented with 100 units/mL penicillin, 100 units/mL streptomycin, 0.01 mg/mL bovine insulin, and 20% FBS; JIMT-1 (Addexbio) 1000 cell/well, 95 μL of DMEM media supplemented with 100 units/mL penicillin, 100 units/mL streptomycin, and 10% FBS.
(§2) Test compounds were added to cells in a 20× dilution scheme by adding 5 μL of serially diluted compound to the plate, and the treated cells were incubated for an additional 7 days in a 37° C., 5% CO2 incubator. DMSO was used as the negative control (0% effect), and wells omitting cells were used as the positive control (100% effect). The cells were incubated for seven days, and cell viability determined via the Promega Cell Titre-Glo® Assay kit. Luminescence units were converted to ATP concentrations via an ATP standard curve (10 point, 2-fold dilution from 5 uM). % Inhibition was calculated for each well as: ([max−min]−[test−min])/[max−min]. IC50 values were calculated from concentration vs. % Inhibition data via a four-parameter variable slope model.

A further assay deals with JIMT-1 cells. Briefly: Cell viability of KIF18a-sensitive cell lines, JIMT-1 (Cell Titre-Glo, 7 days). It counts as cell-based. To be noted: JIMT-1, 7 days, read-out: JIMT-1 IC50. The protocol: as §1, §2
For another assay, the system named is NIH:OVCAR-3 cells. Briefly: Cell viability of KIF18a-sensitive cell lines, NIH:OVCAR-3 (Cell Titre-Glo, 7 days). It counts as cell-based. The conditions noted are these: NIH:OVCAR3, 7 days, read-out: NIH:OVCAR3 IC50. The protocol: as §1, §2

The IC50 is the point on the concentration scale where inhibition reaches its midpoint.

Sequence of hKIF18A (1-374) (Q8NI77 1-374): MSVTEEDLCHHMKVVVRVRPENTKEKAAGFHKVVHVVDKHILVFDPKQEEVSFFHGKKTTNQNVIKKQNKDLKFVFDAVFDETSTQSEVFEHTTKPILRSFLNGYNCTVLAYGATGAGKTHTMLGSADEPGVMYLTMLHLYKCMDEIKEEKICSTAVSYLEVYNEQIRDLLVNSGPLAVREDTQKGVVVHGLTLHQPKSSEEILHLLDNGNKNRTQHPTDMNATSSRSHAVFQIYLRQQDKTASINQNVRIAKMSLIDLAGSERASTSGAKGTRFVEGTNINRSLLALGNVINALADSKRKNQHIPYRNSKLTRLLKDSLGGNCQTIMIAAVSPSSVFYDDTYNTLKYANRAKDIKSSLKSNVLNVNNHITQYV

In the case of `Cc1cc(N2CCC(F)(F)CC2)nc(-n2cc(-c3ccc(NS(=O)(=O)CCO)cc3N3CCC4(CC3)CC4)nn2)c1` [Compound 95, N-(4-(1-(6-(4,4-difluoropiperidin-1-yl)-4-methylpyridin-2-yl)-1H-1,2,3-triazol-4-yl)-3-(6-azaspiro[2.5]octan-6-yl)phenyl)-2-hydroxyethane-1-sulfonamide], the IC50 against hKIF18A (1-374) worked out at 38 nM; in the assay with HCC15 cells (168 h), 37 nM; in the assay on JIMT-1 cells (Homo sapiens, 168 h), 68 nM; in the assay with NIH:OVCAR-3 cells (Homo sapiens, OVCAR-3, 168 h), 51 nM.

With `CCS(=O)(=O)Nc1ccc(-n2cc(-c3cccc(N4CC(F)(F)C4)n3)nn2)c(N2CCC3(CC2)CC3)c1` [Compound 61, N-(4-(4-(6-(3,3-difluoroazetidin-1-yl)pyridin-2-yl)-1H-1,2,3-triazol-1-yl)-3-(6-azaspiro[2.5]octan-6-yl)phenyl)ethanesulfonamide], the IC50 on hKIF18A (1-374) is 8 nM; in the assay on HCC15 cells (168 h), 15 nM; in the assay on JIMT-1 cells (Homo sapiens, 168 h) it was 15 nM; in the assay on NIH:OVCAR-3 cells (Homo sapiens, OVCAR-3, 168 h), 16 nM.

On to `CS(=O)(=O)Nc1ccc(-c2cn(-c3cccc(N4CCC(F)(F)CC4)n3)nn2)c(N2CCC3(CC2)CC3)c1` [Compound 29, N-(4-(1-(6-(4,4-difluoropiperidin-1-yl)pyridin-2-yl)-1H-1,2,3-triazol-4-yl)-3-(6-azaspiro[2.5]octan-6-yl)phenyl)methanesulfonamide], for which the IC50 came to 18 nM at hKIF18A (1-374); 25 nM in the assay with HCC15 cells (168 h); 23 nM in the assay on JIMT-1 cells (Homo sapiens, 168 h); 21 nM in the assay on NIH:OVCAR-3 cells (Homo sapiens, OVCAR-3, 168 h).

`CCS(=O)(=O)Nc1ccc(-n2cc(-c3cccc(S(=O)(=O)NC(C)(C)C)c3)nn2)c(N2CCC3(CC2)CC3)c1` [Compound 116, N-(tert-butyl)-3-(1-(4-(ethylsulfonamido)-2-(6-azaspiro[2.5]octan-6-yl)phenyl)-1H-1,2,3-triazol-4-yl)benzenesulfonamide]: the IC50 at hKIF18A (1-374) was found to be 14 nM; in the assay on HCC15 cells (168 h), 3.6 nM; in the assay with JIMT-1 cells (Homo sapiens, 168 h), 6.3 nM; in the assay on NIH:OVCAR-3 cells (Homo sapiens, OVCAR-3, 168 h), 3.9 nM.

On to `CCS(=O)(=O)Nc1ccc(-n2cc(-c3cc(C)nc(N4CCC(F)(F)CC4)n3)nn2)c(N2CCC3(CC2)CC3)c1` [Compound 106, N-(4-(4-(2-(4,4-difluoropiperidin-1-yl)-6-methylpyrimidin-4-yl)-1H-1,2,3-triazol-1-yl)-3-(6-azaspiro[2.5]octan-6-yl)phenyl)ethanesulfonamide], for which the IC50 on hKIF18A (1-374) stood at 32 nM; in the assay with HCC15 cells (168 h) it was 18 nM; in the assay on JIMT-1 cells (Homo sapiens, 168 h), 24 nM; in the assay with NIH:OVCAR-3 cells (Homo sapiens, OVCAR-3, 168 h), 25 nM.

As to `O=S(=O)(CCO)Nc1ccc(-n2cc(-c3ccc(F)c(N4CCC(F)(F)CC4)n3)nn2)c(N2CCC3(CC2)CC3)c1` [Compound 79, N-(4-(4-(6-(4,4-difluoropiperidin-1-yl)-5-fluoropyridin-2-yl)-1H-1,2,3-triazol-1-yl)-3-(6-azaspiro[2.5]octan-6-yl)phenyl)-2-hydroxyethane-1-sulfonamide], the IC50 against hKIF18A (1-374) stood at 15 nM; in the assay on HCC15 cells (168 h) it was 5.4 nM; in the assay with JIMT-1 cells (Homo sapiens, 168 h), 7.8 nM; in the assay on NIH:OVCAR-3 cells (Homo sapiens, OVCAR-3, 168 h) it was 8.3 nM.

Regarding `O=S(=O)(CCO)Nc1ccc(-n2cc(-c3cccc(C(O)C4CCCC4)n3)nn2)c(N2CCC3(CC2)CC3)c1` (single isomer, unassigned) [Compound 90b], the IC50 against hKIF18A (1-374) came to 5.6 nM; in the assay with HCC15 cells it was 13 nM; with JIMT-1 cells, 20 nM; with NIH:OVCAR-3 cells, 21 nM.

For `O=S(=O)(CCO)Nc1ccc(-c2cn(-c3cncc(N4CCC(F)(F)CC4)n3)nn2)c(N2CCC3(CC2)CC3)c1` [Compound 96, N-(4-(1-(6-(4,4-difluoropiperidin-1-yl)pyrazin-2-yl)-1H-1,2,3-triazol-4-yl)-3-(6-azaspiro[2.5]octan-6-yl)phenyl)-2-hydroxyethane-1-sulfonamide], the IC50 on hKIF18A (1-374) is 4.4 nM; with HCC15 cells (168 h), 17 nM; in the assay on JIMT-1 cells (Homo sapiens, 168 h), 44 nM; in the assay with NIH:OVCAR-3 cells (Homo sapiens, OVCAR-3, 168 h), 28 nM.

Consider `Cc1cc(-c2cn(-c3ccc(NS(=O)(=O)CCO)cc3N3CCC(C)CC3)nn2)nc(N2CCC(F)(F)CC2)n1` [Compound 89, N-(4-(4-(2-(4,4-difluoropiperidin-1-yl)-6-methylpyrimidin-4-yl)-1H-1,2,3-triazol-1-yl)-3-(4-methylpiperidin-1-yl)phenyl)-2-hydroxyethane-1-sulfonamide], for which the IC50 against hKIF18A (1-374) was 21 nM; in the assay with HCC15 cells (168 h), 34 nM; with JIMT-1 cells (Homo sapiens, 168 h) it was 48 nM; in the assay on NIH:OVCAR-3 cells (Homo sapiens, OVCAR-3, 168 h), 51 nM.

As to `O=S(=O)(Nc1ccc(-n2cc(-c3cccc(N4CCC(F)(F)CC4)n3)nn2)c(N2CCC3(CC2)CC3)c1)C1(CO)CC1` [Compound 62, N-(4-(4-(6-(4,4-difluoropiperidin-1-yl)pyridin-2-yl)-1H-1,2,3-triazol-1-yl)-3-(6-azaspiro[2.5]octan-6-yl)phenyl)-1-(hydroxymethyl)cyclopropane-1-sulfonamide], the IC50 turned out to be 18 nM on hKIF18A (1-374); 13 nM in the assay with HCC15 cells (168 h); 9.5 nM in the assay with JIMT-1 cells (Homo sapiens, 168 h); 13 nM in the assay with NIH:OVCAR-3 cells (Homo sapiens, OVCAR-3, 168 h).

Regarding `Cc1cc(-n2cc(-c3ccc(NS(=O)(=O)CCO)cc3N3CCC4(CC3)CC4)nn2)nc(N2CC3C(C2)C3(F)F)n1` (stereo not drawn) [Compound 97, N-(4-(1-(2-(6,6-difluoro-3-azabicyclo[3.1.0]hexan-3-yl)-6-methylpyrimidin-4-yl)-1H-1,2,3-triazol-4-yl)-3-(6-azaspiro[2.5]octan-6-yl)phenyl)-2-hydroxyethane-1-sulfonamide], the IC50 against hKIF18A (1-374) came to 36 nM; in the assay with HCC15 cells (168 h), 37 nM; in the assay with JIMT-1 cells (Homo sapiens, 168 h), 110 nM; in the assay on NIH:OVCAR-3 cells (Homo sapiens, OVCAR-3, 168 h) it was 72 nM.

For `CS(=O)(=O)Nc1ccc(-c2cn(-c3cccc(N4CCC(F)(F)CC4)c3)nn2)c(N2CCC3(CC2)CC3)c1` [Compound 64, N-(4-(1-(3-(4,4-difluoropiperidin-1-yl)phenyl)-1H-1,2,3-triazol-4-yl)-3-(6-azaspiro[2.5]octan-6-yl)phenyl)methanesulfonamide], the IC50 against hKIF18A (1-374) worked out at 25 nM; in the assay with HCC15 cells (168 h) it was 120 nM; in the assay on JIMT-1 cells (Homo sapiens, 168 h) it was 120 nM; in the assay on NIH:OVCAR-3 cells (Homo sapiens, OVCAR-3, 168 h), 120 nM.

Regarding `CCS(=O)(=O)Nc1ccc(-c2cn(-c3cccc(S(=O)(=O)NC(C)(C)C)c3)nn2)c(N2CCC3(CC2)CC3)c1` [Compound 110, N-(tert-butyl)-3-(4-(4-(ethylsulfonamido)-2-(6-azaspiro[2.5]octan-6-yl)phenyl)-1H-1,2,3-triazol-1-yl)benzenesulfonamide], the IC50 was determined as 15 nM at hKIF18A (1-374); 3.3 nM with HCC15 cells (168 h); 6.8 nM in the assay with JIMT-1 cells (Homo sapiens, 168 h); 4.4 nM in the assay with NIH:OVCAR-3 cells (Homo sapiens, OVCAR-3, 168 h).

For `CCS(=O)(=O)Nc1cc(N2CCC3(CC2)CC3)c(-n2cc(-c3cccc(S(=O)(=O)NC(C)(C)C)c3)nn2)cc1F` [Compound 117, N-(tert-butyl)-3-(1-(4-(ethylsulfonamido)-5-fluoro-2-(6-azaspiro[2.5]octan-6-yl)phenyl)-1H-1,2,3-triazol-4-yl)benzenesulfonamide], the IC50 at hKIF18A (1-374) stood at 20 nM; with HCC15 cells (168 h), 10 nM; with JIMT-1 cells (Homo sapiens, 168 h) it was 14 nM; in the assay on NIH:OVCAR-3 cells (Homo sapiens, OVCAR-3, 168 h), 13 nM.

As to `O=S(=O)(CCO)Nc1ccc(-n2cc(-c3cccc(C(O)C4CCCC4)n3)nn2)c(N2CCC3(CC2)CC3)c1` (single isomer, unassigned) [Compound 90a], the IC50 against hKIF18A (1-374) came to 5.2 nM; in the assay on HCC15 cells, 7.4 nM; in the assay on JIMT-1 cells, 11 nM; in the assay with NIH:OVCAR-3 cells, 14 nM.

Regarding `O=S(=O)(CCO)Nc1ccc(-n2cc(-c3cccc(OC4CCCC4)n3)nn2)c(N2CCC3(CC2)CC3)c1` [Compound 100, N-(4-(4-(6-(cyclopentyloxy)pyridin-2-yl)-1H-1,2,3-triazol-1-yl)-3-(6-azaspiro[2.5]octan-6-yl)phenyl)-2-hydroxyethane-1-sulfonamide], the IC50 at hKIF18A (1-374) is 11 nM; with HCC15 cells (168 h), 45 nM; in the assay with JIMT-1 cells (Homo sapiens, 168 h), 60 nM; in the assay with NIH:OVCAR-3 cells (Homo sapiens, OVCAR-3, 168 h) it was 80 nM.

In the case of `Cc1cc(-n2cc(-c3ccc(NS(=O)(=O)CCO)cc3N3CCC4(CC3)CC4)nn2)nc(N2CCC(F)(F)CC2)n1` [Compound 87, N-(4-(1-(2-(4,4-difluoropiperidin-1-yl)-6-methylpyrimidin-4-yl)-1H-1,2,3-triazol-4-yl)-3-(6-azaspiro[2.5]octan-6-yl)phenyl)-2-hydroxyethane-1-sulfonamide], the IC50 against hKIF18A (1-374) was found to be 27 nM; in the assay with HCC15 cells (168 h), 43 nM; in the assay on JIMT-1 cells (Homo sapiens, 168 h), 90 nM; in the assay with NIH:OVCAR-3 cells (Homo sapiens, OVCAR-3, 168 h), 49 nM.

On to `Cc1cc(-c2cn(-c3ccc(NS(=O)(=O)C4(CO)CC4)cc3N3CCCCC3)nn2)nc(N2CCC(F)(F)CC2)n1` [Compound 91, N-(4-(4-(2-(4,4-difluoropiperidin-1-yl)-6-methylpyrimidin-4-yl)-1H-1,2,3-triazol-1-yl)-3-(piperidin-1-yl)phenyl)-1-(hydroxymethyl)cyclopropane-1-sulfonamide], for which the IC50 was found to be 36 nM against hKIF18A (1-374); 29 nM with HCC15 cells (168 h); 35 nM with JIMT-1 cells (Homo sapiens, 168 h); 40 nM in the assay with NIH:OVCAR-3 cells (Homo sapiens, OVCAR-3, 168 h).
